Test results: patent US20260193116A1, “MEMBRANE TREATMENT METHOD, BIOFOULING INHIBITION METHOD, AND ENDOTOXIN PRODUCTION INHIBITION METHOD IN WATER SYSTEM” (KURITA WATER INDUSTRIES LTD., priority 2022, published 2026)

Experiments:
[1] = tested on: biofouling of RO membrane (MFS cell); test: MFS water flow test (Example 3): differential pressure increase of the RO membrane cell; conditions: citric acid + ammonium chloride + sodium phosphate, 35° C., 0.36 mg/L as Cl2 (DPD method), Continuous addition
[2] = tested on: biofouling of RO membrane (MFS cell); test: MFS water flow test (Example 1): differential pressure increase of the RO membrane cell
[3] = tested on: bacterial flora in a biofilm attached to a RO membrane surface; test: Bacterial flora analysis (16S rRNA amplicon) of biofilm attached to RO membrane surface after water flow test (Example 2)

## O=S(=O)(O)NCl.[Na] [Chlorosulfamic acid, sodium monochlorosulfamic acid]
[1]
  Differential pressure suppression effect vs Control: 95%
[2]
  Differential pressure suppression effect vs Control: 102%
[3]
  (Negative bacteria/[negative bacteria + positive bacterial]) (%): 18.2%
  Acidovorax existence ratio in bacterial flora: 0.1%
  Azotobacter existence ratio in bacterial flora: 0.4%
  Cupriavidus existence ratio in bacterial flora: 4.6%
  Dominant bacteria in the biofilm (in words): Mycolicibacterium genus bacteria and Mycobacterium genus bacteria, which are gram-positive bacteria, were dominant
  Gram-negative bacteria (%): 16.7%
  Gram-negative bacteria Others existence ratio in bacterial flora: 6.5%
  Gram-positive bacteria existence ratio in bacterial flora: 75.1%
  Pseudomonas existence ratio in bacterial flora: 4.8%
  Ralstonia existence ratio in bacterial flora: 0.3%
  Unknown bacteria existence ratio in bacterial flora: 8.2%
